13 compounds from patent US9505786B2, “Substituted annulated triazines and use thereof” (BAYER INTELLECTUAL PROPERTY GMBH, priority 2012, dated 2016) can be followed below.

Assay [1] concerns aorta rings. Put plainly: Vasorelaxant effect in vitro (phenylephrine-contracted aorta rings). The note with it: Oryctolagus cuniculus, rabbit aorta rings, organ bath, phenylephrine contraction; read-out: IC50 (concentration needed to reduce the phenylephrine contraction by 50%). As to the method:
B-1. Vasorelaxant Effect In Vitro
Rabbits are stunned by a blow to the neck and exsanguinated. The aorta is removed, freed from adhering tissue and divided into rings of a width of 1.5 mm. The rings are placed individually under an initial tension in 5 ml organ baths with Krebs-Henseleit solution which is at 37° C., is gassed with carbogen and has the following composition (in each case mM): sodium chloride: 119; potassium chloride: 4.8; calcium chloride dihydrate: 1; magnesium sulphate heptahydrate: 1.4; potassium dihydrogenphosphate: 1.2; sodium bicarbonate: 25; glucose: 10. The contractile force is determined with Statham UC2 cells, amplified and digitalized using A/D transducers (DAS-1802 HC, Keithley Instruments Munich), and recorded in parallel on linear recorders.
To produce a contraction, phenylephrine is added to the bath cumulatively in increasing concentration. After several control cycles, the substance to be investigated is added in each further run in increasing dosage in each case, and the height of the contraction achieved is compared with the height of the contraction reached in the last preceding run. This is used to calculate the concentration needed to reduce the magnitude of the control value by 50% (IC50 value). The standard administration volume is 5 μl; the DMSO content in the bath solution corresponds to 0.1%.

For assay [2], the system named is recombinant guanylate cyclase reporter cell line. The assay can be described thus: Effect on a recombinant guanylate cyclase reporter cell line. The format is cell-based. The procedure:
B-2. Effect on a Recombinant Guanylate Cyclase Reporter Cell Line
The cellular activity of the compounds according to the invention is determined using a recombinant guanylate cyclase reporter cell line, as described in F. Wunder et al., Anal. Biochem. 339, 104-112 (2005).

Assay [3] has as its target human phosphodiesterase 5 (PDE 5) (Homo sapiens (Human), UniProt O76074). The assay can be described thus: Inhibition of human phosphodiesterase 5 (PDE 5), SPA assay. In kind it is biochemical. The note with it: PDE 5 preparation from human platelets, [8-3H] cGMP substrate. Summed up:
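Enzyme partially purified from human platelets by Mono Q chromatography; [8-3H]cGMP substrate (0.025 μCi per well), enzyme diluted to keep conversion below 70%. Compounds 4 μM to 0.0018 μM final, 60 min at room temperature in Tris pH 7.5/MgCl2/EDTA; yttrium SPA bead read-out; IC50 from concentration–inhibition plot.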

SMILES strings stand for the structures.

For the compound `CCCc1nc(-c2nn(Cc3ccccc3F)c3ncccc23)nc2c1C(C)(C)C(=O)N2` [Example 32, 2-[1-(2-Fluorobenzyl)-1H-pyrazolo[3,4-b]pyridin-3-yl]-5,5-dimethyl-4-propyl-5,7-dihydro-6H-pyrrolo[2,3-d]pyrimidin-6-one], the IC50 was determined as 244 nM in assay [1] and 110 nM in assay [3]. The “MEC (minimum effective concentration)” value in assay [2] came to 100 nM.

With `Cc1ncc(-c2nc(-c3nn(Cc4ccccc4F)c4ncccc34)nc3c2C(C)(C)C(=O)N3)s1` [Example 35, 2-[1-(2-Fluorobenzyl)-1H-pyrazolo[3,4-b]pyridin-3-yl]-5,5-dimethyl-4-(2-methyl-1,3-thiazol-5-yl)-5,7-dihydro-6H-pyrrolo[2,3-d]pyrimidin-6-one], the IC50 in assay [1] was determined as 496 nM; in assay [3], 120 nM. In addition, the “MEC (minimum effective concentration)” value in assay [2] is 30 nM.

As for `Cc1nc(C)c(-c2nc(-c3nn(Cc4ccccc4F)c4ncccc34)nc3c2C(C)(C)C(=O)N3)s1` [Example 36, 4-(2,4-Dimethyl-1,3-thiazol-5-yl)-2-[1-(2-fluorobenzyl)-1H-pyrazolo[3,4-b]pyridin-3-yl]-5,5-dimethyl-5,7-dihydro-6H-pyrrolo[2,3-d]pyrimidin-6-one], the IC50 in assay [1] is 218 nM; in assay [3], 1100 nM. Also, in assay [2], the “MEC (minimum effective concentration)” value is given as 100 nM.

Consider `Cc1nc(C(C)C)sc1-c1nc(-c2nn(Cc3ccccc3F)c3ncccc23)nc2c1C(C)(C)C(=O)N2` [Example 37, 2-[1-(2-Fluorobenzyl)-1H-pyrazolo[3,4-b]pyridin-3-yl]-4-(2-isopropyl-4-methyl-1,3-thiazol-5-yl)-5,5-dimethyl-5,7-dihydro-6H-pyrrolo[2,3-d]pyrimidin-6-one], for which the IC50 in assay [1] was 1430 nM; in assay [3], 500 nM. The “MEC (minimum effective concentration)” value in assay [2] is reported as 1000 nM.

As for `Cc1cc(-c2nc(-c3nn(Cc4ccccc4F)c4ncccc34)nc3c2C(C)(C)C(=O)N3)n(C)n1` [Example 38, 4-(1,3-Dimethyl-1H-pyrazol-5-yl)-2-[1-(2-fluorobenzyl)-1H-pyrazolo[3,4-b]pyridin-3-yl]-5,5-dimethyl-5,7-dihydro-6H-pyrrolo[2,3-d]pyrimidin-6-one], the IC50 in assay [1] came out at 91 nM; in assay [3] it was 690 nM. For the same compound, in assay [2], the “MEC (minimum effective concentration)” value is 30 nM.

Turning to `CC(C)n1ccc(-c2nc(-c3nn(Cc4ccccc4F)c4ncccc34)nc3c2C(C)(C)C(=O)N3)n1` [Example 39, 2-[1-(2-Fluorobenzyl)-1H-pyrazolo[3,4-b]pyridin-3-yl]-4-(1-isopropyl-1H-pyrazol-3-yl)-5,5-dimethyl-5,7-dihydro-6H-pyrrolo[2,3-d]pyrimidin-6-one], the IC50 in assay [1] stood at 225 nM; in assay [3] it was 240 nM. Besides, the “MEC (minimum effective concentration)” value in assay [2] came to 30 nM.

On to `Cn1nccc1-c1nc(-c2nn(Cc3ccccc3F)c3ncccc23)nc2c1C(C)(C)C(=O)N2` [Example 40, 2-[1-(2-Fluorobenzyl)-1H-pyrazolo[3,4-b]pyridin-3-yl]-5,5-dimethyl-4-(1-methyl-1H-pyrazol-5-yl)-5,7-dihydro-6H-pyrrolo[2,3-d]pyrimidin-6-one], for which the IC50 in assay [1] stood at 227 nM; in assay [3] it was 250 nM. For the same compound, the “MEC (minimum effective concentration)” value in assay [2] is reported as 30 nM.

Consider `Cn1nc(C(F)(F)F)cc1-c1nc(-c2nn(Cc3ccccc3F)c3ncccc23)nc2c1C(C)(C)C(=O)N2` [Example 41, 2-[1-(2-Fluorobenzyl)-1H-pyrazolo[3,4-b]pyridin-3-yl]-5,5-dimethyl-4-[1-methyl-3-(trifluoromethyl)-1H-pyrazol-5-yl]-5,7-dihydro-6H-pyrrolo[2,3-d]pyrimidin-6-one], for which the IC50 in assay [1] stood at 4210 nM; in assay [3], 1600 nM. Moreover, in assay [2], the “MEC (minimum effective concentration)” value was determined as 300 nM.

Take `Cn1c(C#N)ccc1-c1nc(-c2nn(Cc3ccccc3F)c3ncccc23)nc2c1C(C)(C)C(=O)N2` [Example 42, 5-{2-[1-(2-Fluorobenzyl)-1H-pyrazolo[3,4-b]pyridin-3-yl]-5,5-dimethyl-6-oxo-6,7-dihydro-5H-pyrrolo[2,3-d]pyrimidin-4-yl}-1-methyl-1H-pyrrole-2-carbonitrile]: the IC50 turned out to be 728 nM in assay [1] and 1300 nM in assay [3]. Moreover, in assay [2], the “MEC (minimum effective concentration)” value is 10 nM.

In the case of `CC1(C)C(=O)Nc2nc(-c3nn(Cc4ccccc4F)c4ncc(F)cc34)nc(CN)c21.O=CO` [Example 44, 4-(Aminomethyl)-2-[5-fluoro-1-(2-fluorobenzyl)-1H-pyrazolo[3,4-b]pyridin-3-yl]-5,5-dimethyl-5,7-dihydro-6H-pyrrolo[2,3-d]pyrimidin-6-one formate], the values for the IC50 in assay [1] and in assay [3] were 501 nM and 870 nM, respectively. In addition, the “MEC (minimum effective concentration)” value in assay [2] is given as 30 nM.

Turning to `COCCCc1nc(-c2nn(Cc3ccccc3F)c3ncccc23)nc2c1C(C)(C)C(=O)N2` [Example 46, 2-[1-(2-Fluorobenzyl)-1H-pyrazolo[3,4-b]pyridin-3-yl]-4-(3-methoxypropyl)-5,5-dimethyl-5,7-dihydro-6H-pyrrolo[2,3-d]pyrimidin-6-one], the IC50 in assay [1] was determined as 71 nM; in assay [3], 120 nM. Also, the “MEC (minimum effective concentration)” value in assay [2] came to 100 nM.

For the compound `CC1(C)C(=O)Nc2nc(-c3nn(Cc4ccccc4F)c4ncc(F)cc34)nc(CNCC(F)(F)F)c21` [Example 57, 2-[5-Fluoro-1-(2-fluorobenzyl)-1H-pyrazolo[3,4-b]pyridin-3-yl]-5,5-dimethyl-4-{[(2,2,2-trifluoroethyl)amino]methyl}-5,7-dihydro-6H-pyrrolo[2,3-d]pyrimidin-6-one], the IC50 in assay [1] was 422 nM; in assay [3], 320 nM. In assay [2], the “MEC (minimum effective concentration)” value is recorded as 30 nM.

Take `CC1(C)C(=O)Nc2nc(-c3nn(Cc4ccccc4F)c4ncc(F)cc34)nc(CCC(F)(F)F)c21` [Example 58, 2-[5-Fluoro-1-(2-fluorobenzyl)-1H-pyrazolo[3,4-b]pyridin-3-yl]-5,5-dimethyl-4-(3,3,3-trifluoropropyl)-5,7-dihydro-6H-pyrrolo[2,3-d]pyrimidin-6-one]: the IC50 in assay [1] was found to be 9800 nM; in assay [3] it was 660 nM. Moreover, the “MEC (minimum effective concentration)” value in assay [2] amounted to 300 nM.
